Laboratory results taken from ChEMBL document CHEMBL1154627, “Structure-activity relationship studies of targeting ligands against breast cancer cells” (J Med Chem, 2009).
pIC50: −log10 of the molar value. Where a SMILES comes first, the peptide text is derived from it. Bridges are numbered along the chain shown (N, C = ends). [ ]: non-standard residue; d: D form. Tyr(3-NO2) = N[C@@H](Cc1ccc(O)c([N+](=O)[O-])c1)C(=O)O; Hyp = O=C(O)[C@@H]1C[C@@H](O)CN1

Experiment: Binding affinity to alpha3beta1 integrin receptor in human MDA-MB-231 cells assessed as inhibition of cell binding to immobilized LXY1 peptide by cell adherence assay
Type: cell-based

| SMILES | pIC50 |
| --- | --- |
| NC(=O)C[C@@H]1NC(=O)[C@@H]2C[C@@H](O)CN2C(=O)CNC(=O)[C@H](Cc2ccc(O)c([N+](=O)[O-])c2)NC(=O)CNC(=O)[C@@H](CC(=O)O)NC(=O)[C@H](NC(=O)Nc2ccc(-c3ccccc3)cc2)CSSC[C@H](C(N)=O)NC1=O | < 4.60 |
| NC(=O)C[C@@H]1NC(=O)[C@@H]2C[C@@H](O)CN2C(=O)CNC(=O)[C@H](Cc2cc(Br)c(O)c(Br)c2)NC(=O)CNC(=O)[C@@H](CC(=O)O)NC(=O)[C@H](N)CSSC[C@H](C(N)=O)NC1=O | < 4.60 |
| CC1(C)SSC(C)(C)[C@H](C(N)=O)NC(=O)[C@H](CC(N)=O)NC(=O)[C@@H]2C[C@@H](O)CN2C(=O)CNC(=O)[C@H](Cc2ccc(O)c([N+](=O)[O-])c2)NC(=O)CNC(=O)[C@@H](CC(=O)O)NC(=O)[C@@H]1N | < 4.60 |
| CN(C)c1ccc(CN[C@@H]2CSSC[C@H](C(N)=O)NC(=O)[C@H](CC(N)=O)NC(=O)[C@@H]3C[C@@H](O)CN3C(=O)CNC(=O)[C@H](Cc3ccc(O)c([N+](=O)[O-])c3)NC(=O)CNC(=O)[C@@H](CC(=O)O)NC2=O)cc1 | < 4.60 |
| NC(=O)C[C@@H]1NC(=O)[C@@H]2C[C@@H](O)CN2C(=O)CNC(=O)[C@H](Cc2ccc(O)c([N+](=O)[O-])c2)NC(=O)CNC(=O)[C@@H](CC(=O)O)NC(=O)[C@H](NCc2ccc(F)c(F)c2)CSSC[C@H](C(N)=O)NC1=O | < 4.60 |
| COc1ccc(NC(=O)N[C@@H]2CSSC[C@H](C(N)=O)NC(=O)[C@H](CC(N)=O)NC(=O)[C@@H]3C[C@@H](O)CN3C(=O)CNC(=O)[C@H](Cc3ccc(O)c([N+](=O)[O-])c3)NC(=O)CNC(=O)[C@@H](CC(=O)O)NC2=O)cc1OC | < 4.60 |
| NC(=O)C[C@@H]1NC(=O)[C@@H]2C[C@@H](O)CN2C(=O)CNC(=O)[C@H](Cc2ccc(O)c([N+](=O)[O-])c2)NC(=O)CNC(=O)[C@@H](CC(=O)O)NC(=O)[C@H](NCc2cccnc2)CSSC[C@H](C(N)=O)NC1=O | < 4.60 |
| NCC[C@@H]1NC(=O)[C@@H]2C[C@@H](O)CN2C(=O)CNC(=O)[C@H](Cc2ccc(O)c([N+](=O)[O-])c2)NC(=O)CNC(=O)[C@@H](CC(=O)O)NC(=O)[C@H](N)CSSC[C@H](C(N)=O)NC1=O | 4.87 |
| NC(=O)[C@H]1CSSC[C@@H](N)C(=O)N[C@H](CC(=O)O)C(=O)NCC(=O)N[C@@H](Cc2ccc(O)c([N+](=O)[O-])c2)C(=O)NCC(=O)N2C[C@H](O)C[C@H]2C(=O)N[C@@H](CC(=O)O)C(=O)N1 | 4.77 |
| CCCCCCN(CCCCCC)[C@@H]1CSSC[C@H](C(N)=O)NC(=O)[C@H](CC(N)=O)NC(=O)[C@@H]2C[C@@H](O)CN2C(=O)CNC(=O)[C@H](Cc2ccc(O)c([N+](=O)[O-])c2)NC(=O)CNC(=O)[C@@H](CC(=O)O)NC1=O | < 4.60 |

The remaining lines, values ahead:

| pIC50 | SMILES |
| --- | --- |
| 4.71 | NC(=O)C[C@@H]1NC(=O)[C@@H]2C[C@@H](O)CN2C(=O)CNC(=O)[C@H](c2ccccc2[N+](=O)[O-])NC(=O)CNC(=O)[C@@H](CC(=O)O)NC(=O)[C@H](N)CSSC[C@H](C(N)=O)NC1=O |
| 5.13 | NC(=O)C[C@@H]1NC(=O)[C@@H]2C[C@@H](O)CN2C(=O)CNC(=O)[C@H](Cc2ccc(O)c([N+](=O)[O-])c2)NC(=O)CNC(=O)[C@@H](CC(=O)O)NC(=O)[C@H](N)CSSC[C@H](C(N)=O)NC1=O (H-[dC][dD]G[Tyr(3-NO2)]G[Hyp]N[dC]-NH2; disulfide 1-8) |
| 4.67 | NC(=O)C[C@@H]1NC(=O)[C@@H]2C[C@@H](O)CN2C(=O)CNC(=O)[C@@H]2CCN2C(=O)CNC(=O)[C@@H](CC(=O)O)NC(=O)[C@H](N)CSSC[C@H](C(N)=O)NC1=O |
| 5.23 | NC(=O)C[C@@H]1NC(=O)[C@@H]2C[C@@H](O)CN2C(=O)CNC(=O)[C@H](c2cc(F)c(F)c(F)c2)NC(=O)CNC(=O)[C@@H](CC(=O)O)NC(=O)[C@H](N)CSSC[C@H](C(N)=O)NC1=O |
| < 4.60 | NC(=O)C[C@@H]1NC(=O)[C@@H]2C[C@@H](O)CN2C(=O)CNC(=O)[C@H](c2ccc(C(F)(F)F)cc2)NC(=O)CNC(=O)[C@@H](CC(=O)O)NC(=O)[C@H](N)CSSC[C@H](C(N)=O)NC1=O |
